Experimental data published in patent US7915245B2, “Methods and compositions of trail-death receptor agonists/activators” (The Board of Regents of the University of Texas System, priority 2007, dated 2011).

Assays:
[1] = test system: mesothelioma M33K cell line; assay: XTT cell viability, mesothelioma M33K; assay type: cell-based; settings: z-VAD-fmk 25 μM 2 h pretreatment, then DRA 72 h
Procedure: FIG. 53. […] M33K cells were pretreated with either control peptide (10 μM) or pan caspase inhibitor (z-VAD-fink, 25 μM) for 2 h, followed by treatment with various doses of DRA11, DRA9 and DRA9S for 72 h. At the end of incubation, cell viability was measured by XTT assay. Data represent the mean±S.D.
XTT Assay. Cells (1×10^4 cells per well) were seeded in 96-well plates (flat bottom), and treated with death receptor agonists/activators/small molecules in the presence or absence of TNF-related apoptosis inducing ligand (TRAIL). Plates were incubated for various time points at 37° C. and 5% CO2. Before the end of the experiment, 50 μl XTT (sodium 3′[1-(phenylaminocarbonyl)-3,4-tetrazolium]-bis(4-methoxy-6-nitro) benzene sulfonic acid hydrate) labeling mixture (final concentration, 125 μM sodium XTT and 25 μM PMS) per well was added and plates were incubated for a further 4 h at 37° C. and 5% CO2. The spectrophotometric absorbance of the sample was measured using a microtitre plate (ELISA) reader. The wavelength to measure absorbance of the formazan product was 450 nm, and the reference wavelength was 650 nm.

[2] = test system: prostate cancer LNCaP cells xenografted; assay: LNCaP xenograft tumor growth; assay type: in vivo, Balb c nude mice; settings: 40 mg/kg iv, 5 days per week
Procedure: (§1) FIG. 28. […] LNCaP cells (2×10^6 cells as a 50% suspension in Matrigel, Becton Dickinson, Bedford, Mass., in a final volume of 0.1 ml) were injected subcutaneously in the right flank of Balb c nude mice. After tumor formation (about 100 mm^3), nude mice were treated (iv) with vehicle control (0.1 ml normal saline), and DRA9S (40 mg/kg, 0.1 ml volume) everyday 5 days per week throughout the duration of the experiment. Tumor volume was calculated using the equation: (volume=length×width×depth×0.5236 mm^3). Data represent mean±S.E.
(§2) LNCaP cells (2×10^6 cells as a 50% suspension in Matrigel, Becton Dickinson, Bedford, Mass., in a final volume of 0.1 ml) were injected subcutaneously in the right flank of Balb c nude mice. After tumor formation (about 100 mm^3), nude mice were treated (iv) with vehicle control (0.1 ml normal saline), and DRA9S (40 mg/kg, 0.1 ml volume) everyday 5 days per week throughout the duration of the experiment. Tumor volume was calculated using the equation: (volume=length×width×depth×0.5236 mm^3). See, for example, FIG. 28. Data represent mean ±S.E.

[3] = test system: prostate cancer PC-3 cells xenografted; assay: PC-3 xenograft tumor growth; assay type: in vivo, Balb c nude mice; settings: 40 mg/kg iv, 5 days per week
Procedure: as §1, with “26.” for “28.”, “PC-3” for “LNCaP”, “cells,” for “cells as a 50% suspension in Matrigel, Becton Dickinson, Bedford, Mass.,”, “saline), DRA11 (20 mg/kg, 0.1 ml volume), DRA11 (30 mg/kg, 0.1 ml volume),” for “saline),”, “DRA11” for “DRA9S”
as §1, with “29.” for “28.”, “PC-3” for “LNCaP”, “(1×10^6 cells,” for “(2×10^6 cells as a 50% suspension in Matrigel, Becton Dickinson, Bedford, Mass.,”, “ml PBS)” for “ml)”, “Data represent mean±S.E.” left out
PC-3 cells (2×10^6 cells, in a final volume of 0.1 ml) were injected subcutaneously in the right flank of Balb c nude mice. […] Tumor volume was calculated using the equation: (volume=length×width×depth×0.5236 mm^3). […]
PC-3 cells (1×10^6 cells, in a final volume of 0.1 ml PBS) were injected subcutaneously in the right flank of Balb c nude mice. […] Tumor volume was calculated using the equation: (volume=length×width×depth×0.5236 mm^3). […]

[4] = test system: breast cancer MDA-MB-468 cells xenografted; assay: MDA-MB-468 xenograft tumor growth; assay type: in vivo, Balb c nude mice; settings: 40 mg/kg iv, 5 days per week
Procedure: as §1, with “30.” for “28.”, “MDA-MB-468” for “LNCaP”, “cells,” for “cells as a 50% suspension in Matrigel, Becton Dickinson, Bedford, Mass.,”, “ml PBS)” for “ml)”
as §2, with “MDA-MB-468” for “LNCaP”, “cells,” for “cells as a 50% suspension in Matrigel, Becton Dickinson, Bedford, Mass.,”, “ml PBS)” for “ml)”, “30.” for “28.”

SMILES	effect of pan caspase inhibitor (z-VAD-fmk) on the inhibitory effect on cell viability [1]	growth of xenografted LNCaP tumors (tumor volume) [2]	growth of xenografted PC-3 tumors (tumor volume) [3]	growth of xenografted MDA-MB-468 tumors (tumor volume) [4]
CCOc1cc(Br)c(Br)c(/C=N/c2cccc(C(=O)O)c2)c1O [DRA9]	blocks the inhibitory effects			
CCOc1cc(Br)c(Br)c(/C=N/c2cccc(C(=O)O)c2C)c1O [DRA9S]		inhibits growth	inhibits growth	inhibits growth
